Test results: patent US11931415B2, “Ophthalmic compositions” (The University of Liverpool, priority 2016, dated 2024)
Values joined by “and” are separate entries in the source; they are usually repeats but may differ in a detail not shown here. Equal values may be shown once.

Key:
[1] = literature value; cited from earlier work
[2] = physchem; conditions: SiO1000, oil or lipid
[3] = atRA saturation concentration in SiO and blends using tritiated atRA (liquid scintillation)

CC1=C(/C=C/C(C)=C/C=C/C(C)=C/C(=O)O)C(C)(C)CCC1 [atRA, (2E,4E,6E,8E)-3,7-Dimethyl-9-(2,6,6-trimethylcyclohexen-1-yl)nona-2,4,6,8-tetraenoic acid]
Solubility reported for atRA in SiO1000 in the literature [1]: 20 μg/mL and 0.6×10^−4 M | solubility [2]: ~28 µg/mL and 95 µM | Saturation amount of atRA in SiO1000 blended with 1% PDMS-atRA ([3]; 1% (v/v) PDMS-atRA in SiO1000, after 2 weeks at ambient temperature, in air): 2.17 × 10^−3 M and 651.0 μg/mL | Saturation amount of atRA in SiO1000 blended with 5% PDMS-atRA ([3]; 5% (v/v) PDMS-atRA in SiO1000, after 2 weeks at ambient temperature, in air): 2.33 × 10^−3 M and 699.8 μg/mL | Solubility measured with tritiated atRA relative to the previous values ([3]; in SiO1000, tritiated atRA versus previous values): over 20 times | Saturation of atRA in SiO5000 ([3]; in SiO5000, tritiated atRA, n=1): 610 μg/mL and 2.03×10^−3 M
